From PubChem BioAssay AID330 (DTP/NCI, 2004)
“And” between values parts separate entries of the source, which are not always exact repeats. Identical values can stand only once. Toxic doses and inconclusive results are not listed. The calls were made as follows: active = survival T/C of 150% or more; inactive = T/C below 125% in these data.

System: P388 leukemia ip, CD2F1 mice, survival T/C
Assay: NCI In Vivo Anticancer Drug Screen. Data for tumor model P388 Leukemia (intraperitoneal) in CD2F1 (CDF1) mice
Settings: endpoint: median survival time, higher = longer survival
In short: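 Mice carrying the transplanted tumor received test compound or vehicle. Survival was recorded in each group, and the value is the treated-group measurement divided by that of the vehicle-treated control group.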

[1] = dose: 50.0 mg/kg/injection, schedule: Q01DX009 (ip), vehicle: saline
[2] = dose: 100.0 mg/kg/injection, schedule: Q01DX009 (ip), vehicle: saline
[3] = dose: 200.0 mg/kg/injection, schedule: Q01DX009 (ip), vehicle: saline
[4] = dose: 50.0 mg/kg/injection, schedule: Q01DX009 (ip), vehicle: Klucel (hydroxypropylcellulose) (HPC)
[5] = dose: 100.0 mg/kg/injection, schedule: Q01DX009 (ip), vehicle: Klucel (hydroxypropylcellulose) (HPC)
[6] = dose: 200.0 mg/kg/injection, schedule: Q01DX009 (ip), vehicle: Klucel (hydroxypropylcellulose) (HPC)
[7] = dose: 60.0 mg/kg/injection, schedule: Q01DX005 (ip), vehicle: saline with Tween-80
[8] = dose: 120.0 mg/kg/injection, schedule: Q01DX005 (ip), vehicle: saline with Tween-80
[9] = dose: 240.0 mg/kg/injection, schedule: Q01DX005 (ip), vehicle: saline with Tween-80
[10] = dose: 50.0 mg/kg/injection, schedule: Q01DX009 (ip), vehicle: saline with Tween-80
[11] = dose: 100.0 mg/kg/injection, schedule: Q01DX009 (ip), vehicle: saline with Tween-80
[12] = dose: 200.0 mg/kg/injection, schedule: Q01DX009 (ip), vehicle: saline with Tween-80
[13] = dose: 400.0 mg/kg/injection, schedule: Q01DX009 (ip), vehicle: saline with Tween-80

Measured: T/C

FC(F)(F)COP1(OCC(F)(F)F)(OCC(F)(F)F)SC(C(F)(F)F)=C(C(F)(F)F)S1
inactive: dose: 50.0 mg/kg/injection, schedule: Q04DX002 (ip), vehicle: saline 102 % of control and 103 % of control | dose: 100.0 mg/kg/injection, schedule: Q04DX002 (ip), vehicle: saline 99 % of control and 100 % of control (2×) | dose: 200.0 mg/kg/injection, schedule: Q04DX002 (ip), vehicle: saline 100 % of control and 107 % of control | dose: 400.0 mg/kg/injection, schedule: Q04DX002 (ip), vehicle: saline 102 % of control and 107 % of control

CC(=O)Nc1ccc(N=Nc2c(O)c(S(=O)(=O)O)cc3cc(S(=O)(=O)O)ccc23)cc1
inactive: [1] 102 % of control | [2] 97 % of control | [3] 103 % of control

Cc1cccn2cnnc12
inactive: [1] 119 % of control | [2] 119 % of control | [3] 117 % of control

O=c1c2ccccc2oc2cccc(NCCCN3CCN(CCCNc4cccc5oc6ccccc6c(=O)c45)CC3)c12
inactive: dose: 7.0 mg/kg/injection, schedule: Q01DX005 (ip), vehicle: saline with Tween-80 90 % of control

COc1cc2c(cc1OC)C(=O)Cc1ccc(OC)c(O)c1CN(C)CC2
inactive: dose: 2.25 mg/kg/injection, schedule: Q01DX009 (ip), vehicle: Klucel (hydroxypropylcellulose) (HPC) 111 % of control | dose: 4.5 mg/kg/injection, schedule: Q01DX009 (ip), vehicle: Klucel (hydroxypropylcellulose) (HPC) 108 % of control | dose: 9.0 mg/kg/injection, schedule: Q01DX009 (ip), vehicle: Klucel (hydroxypropylcellulose) (HPC) 118 % of control | dose: 18.0 mg/kg/injection, schedule: Q01DX009 (ip), vehicle: Klucel (hydroxypropylcellulose) (HPC) 108 % of control

O=C1c2ccccc2C(=O)N1Cc1ccccc1
inactive: dose: 100.0 mg/kg/injection, schedule: Q04DX003 (ip), vehicle: saline with Tween-80 104 % of control | dose: 200.0 mg/kg/injection, schedule: Q04DX003 (ip), vehicle: saline with Tween-80 95 % of control | dose: 400.0 mg/kg/injection, schedule: Q04DX003 (ip), vehicle: saline with Tween-80 100 % of control

COc1ccc(OC)c(/C=C/c2ccc([N+](=O)[O-])cc2)c1
inactive: [4] 100 % of control | [5] 100 % of control | [6] 86 % of control

O=C(OC(c1ccccc1)c1ccccc1)c1ccccc1
inactive: [1] 99 % of control | [2] 108 % of control | [3] 102 % of control

O=C(NC(=O)c1c(F)cccc1F)Nc1ccc(Cl)cn1
inactive: dose: 50.0 mg/kg/injection, schedule: Q04DX002 (ip), vehicle: saline with Tween-80 95 % of control | dose: 100.0 mg/kg/injection, schedule: Q04DX002 (ip), vehicle: saline with Tween-80 100 % of control | dose: 200.0 mg/kg/injection, schedule: Q04DX002 (ip), vehicle: saline with Tween-80 98 % of control

CCc1ccccc1NC(=O)C(=O)CC(=O)CS(=O)(=O)c1ccc(C)cc1
inactive: [7] 103 % of control | [8] 100 % of control | [9] 103 % of control

Cc1ccc(S(=O)(=O)Nc2cc(C)cc(CCNC=O)c2C)cc1
inactive: [10] 104 % of control | [11] 94 % of control | [12] 99 % of control | [13] 94 % of control

CC(=O)[C@H]1CC[C@H]2[C@@H]3C[C@H](C)C4=CC(=O)CC[C@]4(C)[C@H]3C(=O)C[C@]12C
inactive: [11] 100 % of control | [12] 109 % of control | [13] 104 % of control

COC(=O)C(Br)C(Br)c1ccccc1 (stereo unspecified)
inactive: dose: 25.0 mg/kg/injection, schedule: Q01DX009 (ip), vehicle: saline 104 % of control and 111 % of control | [10] 110 % of control | [1] 119 % of control | [11] 91 % of control | [2] 120 % of control | dose: 132.0 mg/kg/injection, schedule: Q01DX009 (ip), vehicle: saline with Tween-80 113 % of control | [12] 107 % of control and 113 % of control | [3] 122 % of control | dose: 300.0 mg/kg/injection, schedule: Q01DX009 (ip), vehicle: saline with Tween-80 95 % of control

COC(=O)CC1C=CC(OC)[C@@]2(C)C(=O)c3ccccc3C(=O)[C@@H]12 (stereo partly specified)
inactive: [7] 93 % of control | [8] 106 % of control | [9] 101 % of control

O=C(Nc1ccc(O)cc1)C(F)(F)F
inactive: [4] 93 % of control | [5] 95 % of control | [6] 90 % of control

COC1=C(OC)C(=O)C(Sc2ccccc2)=C(CO)C1=O
inactive: dose: 1.56 mg/kg/injection, schedule: Q01DX005 (ip), vehicle: saline with Tween-80 92 % of control | dose: 3.12 mg/kg/injection, schedule: Q01DX005 (ip), vehicle: saline with Tween-80 87 % of control | dose: 12.5 mg/kg/injection, schedule: Q01DX005 (ip), vehicle: saline with Tween-80 99 % of control

CB1N(c2ccccc2)N=NN1C(C)(C)C
inactive: dose: 15.0 mg/kg/injection, schedule: Q01DX005 (ip), vehicle: Klucel (hydroxypropylcellulose) (HPC) 97 % of control | dose: 30.0 mg/kg/injection, schedule: Q01DX005 (ip), vehicle: Klucel (hydroxypropylcellulose) (HPC) 102 % of control | dose: 60.0 mg/kg/injection, schedule: Q01DX005 (ip), vehicle: Klucel (hydroxypropylcellulose) (HPC) 107 % of control | dose: 120.0 mg/kg/injection, schedule: Q01DX005 (ip), vehicle: Klucel (hydroxypropylcellulose) (HPC) 110 % of control | dose: 240.0 mg/kg/injection, schedule: Q01DX005 (ip), vehicle: Klucel (hydroxypropylcellulose) (HPC) 91 % of control

CC(C)CCCCc1c[nH]c(=O)[nH]c1=O
inactive: [11] 95 % of control | [12] 90 % of control | [13] 100 % of control

Oc1ccccc1C=Nc1cccnc1
inactive: dose: 12.5 mg/kg/injection, schedule: Q01DX009 (ip), vehicle: saline with Tween-80 96 % of control | dose: 25.0 mg/kg/injection, schedule: Q01DX009 (ip), vehicle: saline with Tween-80 101 % of control | [10] 87 % of control
